Literature values, collected in paper PMC9851200, “Multiparameter phenotypic screening for endogenous TFEB and TFE3 translocation identifies novel chemical series modulating lysosome function” (Autophagy, 2022).

Tests used:
Design in all cases: method as in original PKIS2 published data
[1] = target: T1, kinases (KINOMEscan panel) (Homo sapiens, UniProt Q12866); settings: kinase MERTK; Published KINOMEscan; ref original PKIS2 published data; cited from earlier work
T1 sequence (Q12866 21-999): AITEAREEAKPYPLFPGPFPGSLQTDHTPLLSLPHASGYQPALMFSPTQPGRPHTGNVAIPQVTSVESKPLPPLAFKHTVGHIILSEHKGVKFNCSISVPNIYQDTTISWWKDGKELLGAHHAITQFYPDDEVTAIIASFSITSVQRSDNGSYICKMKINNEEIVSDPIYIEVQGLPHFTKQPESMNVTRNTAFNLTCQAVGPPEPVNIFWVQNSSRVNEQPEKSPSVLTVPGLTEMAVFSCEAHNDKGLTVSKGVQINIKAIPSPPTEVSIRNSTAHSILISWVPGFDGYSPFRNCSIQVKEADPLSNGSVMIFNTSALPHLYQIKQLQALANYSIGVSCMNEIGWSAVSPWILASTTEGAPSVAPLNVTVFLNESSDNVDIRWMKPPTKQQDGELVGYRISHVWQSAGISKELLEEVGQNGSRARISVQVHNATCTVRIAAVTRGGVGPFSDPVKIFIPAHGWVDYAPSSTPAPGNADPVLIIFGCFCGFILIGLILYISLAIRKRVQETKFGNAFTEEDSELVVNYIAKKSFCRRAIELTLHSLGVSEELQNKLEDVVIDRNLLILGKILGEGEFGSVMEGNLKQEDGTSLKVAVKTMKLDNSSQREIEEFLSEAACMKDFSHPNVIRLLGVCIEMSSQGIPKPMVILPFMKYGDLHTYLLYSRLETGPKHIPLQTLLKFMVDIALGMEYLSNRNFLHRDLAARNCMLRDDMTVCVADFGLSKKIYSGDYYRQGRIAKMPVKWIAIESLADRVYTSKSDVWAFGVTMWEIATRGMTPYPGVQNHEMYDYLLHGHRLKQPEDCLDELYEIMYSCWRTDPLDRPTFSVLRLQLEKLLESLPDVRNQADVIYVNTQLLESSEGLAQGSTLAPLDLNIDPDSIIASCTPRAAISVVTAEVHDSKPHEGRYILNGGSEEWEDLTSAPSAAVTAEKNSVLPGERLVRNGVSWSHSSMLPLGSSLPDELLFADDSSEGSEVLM

[2] = target: kinases (KINOMEscan panel) (Homo sapiens, UniProt P06239); settings: LCK; Published KINOMEscan; ref original PKIS2 published data; cited from earlier work
[3] = target: kinases (KINOMEscan panel) (Homo sapiens, UniProt Q9BUB5); settings: Published KINOMEscan; ref original PKIS2 published data; cited from earlier work
[4] = target: T2, kinases (KINOMEscan panel) (Homo sapiens, UniProt P51955); settings: kinase NEK2; Published KINOMEscan; ref original PKIS2 published data; cited from earlier work
T2 sequence (P51955 1-445): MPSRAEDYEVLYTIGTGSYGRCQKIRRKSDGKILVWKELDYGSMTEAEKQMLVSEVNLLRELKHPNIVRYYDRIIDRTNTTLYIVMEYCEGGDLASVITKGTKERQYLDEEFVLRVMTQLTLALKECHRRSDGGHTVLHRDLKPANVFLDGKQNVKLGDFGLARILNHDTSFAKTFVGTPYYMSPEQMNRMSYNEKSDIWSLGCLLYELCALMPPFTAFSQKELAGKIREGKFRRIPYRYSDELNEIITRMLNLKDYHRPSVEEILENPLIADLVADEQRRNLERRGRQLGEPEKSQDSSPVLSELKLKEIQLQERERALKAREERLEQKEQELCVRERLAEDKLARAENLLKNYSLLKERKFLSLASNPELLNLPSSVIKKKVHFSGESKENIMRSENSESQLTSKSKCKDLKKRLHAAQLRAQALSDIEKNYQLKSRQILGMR

[5] = target: kinases (KINOMEscan panel) (Homo sapiens, UniProt Q96SB4); settings: kinase SRPK1; Published KINOMEscan; ref original PKIS2 published data; cited from earlier work
[6] = target: kinases (KINOMEscan panel) (Homo sapiens, UniProt Q13557); settings: kinase CAMK2D; Published KINOMEscan; ref original PKIS2 published data; cited from earlier work
[7] = target: kinases (KINOMEscan panel) (Homo sapiens, UniProt P29376); settings: LTK; Published KINOMEscan; ref original PKIS2 published data; cited from earlier work
[8] = target: T3, kinases (KINOMEscan panel) (Homo sapiens, UniProt Q13546); settings: kinase RIPK1; Published KINOMEscan; ref original PKIS2 published data; cited from earlier work
T3 sequence (Q13546 1-671): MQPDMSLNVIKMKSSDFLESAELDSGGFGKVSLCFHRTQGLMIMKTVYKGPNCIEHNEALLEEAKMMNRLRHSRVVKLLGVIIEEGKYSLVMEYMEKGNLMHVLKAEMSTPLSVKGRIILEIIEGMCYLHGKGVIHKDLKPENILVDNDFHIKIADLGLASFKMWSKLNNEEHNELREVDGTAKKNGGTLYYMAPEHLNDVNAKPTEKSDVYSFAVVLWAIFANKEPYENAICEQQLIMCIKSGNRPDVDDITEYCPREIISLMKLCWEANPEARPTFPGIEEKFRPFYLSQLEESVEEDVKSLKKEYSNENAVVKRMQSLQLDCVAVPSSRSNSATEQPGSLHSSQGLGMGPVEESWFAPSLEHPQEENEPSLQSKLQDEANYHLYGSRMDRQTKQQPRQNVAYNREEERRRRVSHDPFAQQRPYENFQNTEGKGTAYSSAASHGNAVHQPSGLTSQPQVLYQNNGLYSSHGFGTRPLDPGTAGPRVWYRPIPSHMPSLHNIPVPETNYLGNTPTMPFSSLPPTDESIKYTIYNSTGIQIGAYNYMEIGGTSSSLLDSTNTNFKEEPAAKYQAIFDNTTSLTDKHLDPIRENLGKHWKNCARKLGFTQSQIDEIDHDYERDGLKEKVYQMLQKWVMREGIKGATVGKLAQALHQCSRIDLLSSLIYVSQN

kinases (KINOMEscan panel) (Homo sapiens, UniProt Q96SB4), sequence (Q96SB4 whole entry): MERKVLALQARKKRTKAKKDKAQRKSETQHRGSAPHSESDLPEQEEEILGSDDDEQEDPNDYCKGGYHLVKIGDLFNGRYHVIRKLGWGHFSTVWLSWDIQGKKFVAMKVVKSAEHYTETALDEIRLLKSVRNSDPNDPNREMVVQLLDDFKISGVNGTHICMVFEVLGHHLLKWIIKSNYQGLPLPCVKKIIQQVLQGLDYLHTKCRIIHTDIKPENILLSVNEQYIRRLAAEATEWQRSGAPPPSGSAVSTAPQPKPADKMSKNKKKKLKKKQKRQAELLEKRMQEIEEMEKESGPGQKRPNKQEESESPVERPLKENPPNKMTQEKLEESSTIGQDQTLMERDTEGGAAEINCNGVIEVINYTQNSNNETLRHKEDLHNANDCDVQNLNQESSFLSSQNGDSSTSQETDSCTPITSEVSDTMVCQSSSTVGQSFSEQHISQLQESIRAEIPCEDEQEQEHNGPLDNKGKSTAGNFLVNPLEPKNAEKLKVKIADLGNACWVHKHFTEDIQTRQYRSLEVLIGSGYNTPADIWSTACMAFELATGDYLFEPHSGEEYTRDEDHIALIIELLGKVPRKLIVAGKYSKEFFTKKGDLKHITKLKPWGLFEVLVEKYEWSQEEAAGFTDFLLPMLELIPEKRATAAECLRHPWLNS
kinases (KINOMEscan panel) (Homo sapiens, UniProt P29376), sequence (P29376 17-864): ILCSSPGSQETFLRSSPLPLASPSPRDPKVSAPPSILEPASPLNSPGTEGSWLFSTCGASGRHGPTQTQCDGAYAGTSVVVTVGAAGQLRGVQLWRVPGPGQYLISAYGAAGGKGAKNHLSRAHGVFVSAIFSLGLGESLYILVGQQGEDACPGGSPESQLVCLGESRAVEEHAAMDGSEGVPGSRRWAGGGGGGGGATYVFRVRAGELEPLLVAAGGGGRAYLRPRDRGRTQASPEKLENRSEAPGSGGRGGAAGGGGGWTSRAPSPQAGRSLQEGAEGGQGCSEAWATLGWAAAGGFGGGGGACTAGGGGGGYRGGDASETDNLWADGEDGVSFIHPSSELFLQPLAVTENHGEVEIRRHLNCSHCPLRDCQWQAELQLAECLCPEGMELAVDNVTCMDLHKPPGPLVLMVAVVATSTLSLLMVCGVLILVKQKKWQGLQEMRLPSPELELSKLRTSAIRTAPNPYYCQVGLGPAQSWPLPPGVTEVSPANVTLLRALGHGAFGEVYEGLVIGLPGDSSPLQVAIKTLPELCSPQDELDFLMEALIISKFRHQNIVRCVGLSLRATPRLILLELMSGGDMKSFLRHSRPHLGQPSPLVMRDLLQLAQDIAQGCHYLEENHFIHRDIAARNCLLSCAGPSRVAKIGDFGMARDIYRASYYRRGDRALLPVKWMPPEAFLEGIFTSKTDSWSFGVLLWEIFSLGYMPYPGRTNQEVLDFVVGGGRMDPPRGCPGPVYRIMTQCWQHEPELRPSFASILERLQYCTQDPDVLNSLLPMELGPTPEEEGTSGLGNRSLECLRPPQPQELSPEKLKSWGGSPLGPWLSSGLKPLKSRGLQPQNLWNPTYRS
kinases (KINOMEscan panel) (Homo sapiens, UniProt Q13557), sequence (Q13557 whole entry): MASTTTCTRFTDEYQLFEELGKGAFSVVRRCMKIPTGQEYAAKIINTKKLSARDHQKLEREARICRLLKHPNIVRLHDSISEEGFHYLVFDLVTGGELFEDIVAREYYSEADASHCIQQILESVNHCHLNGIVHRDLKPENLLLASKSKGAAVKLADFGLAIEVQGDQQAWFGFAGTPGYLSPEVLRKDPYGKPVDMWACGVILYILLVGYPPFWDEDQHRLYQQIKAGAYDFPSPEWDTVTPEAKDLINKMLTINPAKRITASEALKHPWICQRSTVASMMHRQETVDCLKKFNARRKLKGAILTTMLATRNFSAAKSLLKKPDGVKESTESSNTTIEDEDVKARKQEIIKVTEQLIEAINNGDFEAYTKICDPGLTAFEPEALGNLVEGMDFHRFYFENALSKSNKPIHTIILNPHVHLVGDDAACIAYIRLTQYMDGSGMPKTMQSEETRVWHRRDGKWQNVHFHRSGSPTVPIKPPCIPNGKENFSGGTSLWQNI
kinases (KINOMEscan panel) (Homo sapiens, UniProt Q9BUB5), sequence (Q9BUB5 whole entry): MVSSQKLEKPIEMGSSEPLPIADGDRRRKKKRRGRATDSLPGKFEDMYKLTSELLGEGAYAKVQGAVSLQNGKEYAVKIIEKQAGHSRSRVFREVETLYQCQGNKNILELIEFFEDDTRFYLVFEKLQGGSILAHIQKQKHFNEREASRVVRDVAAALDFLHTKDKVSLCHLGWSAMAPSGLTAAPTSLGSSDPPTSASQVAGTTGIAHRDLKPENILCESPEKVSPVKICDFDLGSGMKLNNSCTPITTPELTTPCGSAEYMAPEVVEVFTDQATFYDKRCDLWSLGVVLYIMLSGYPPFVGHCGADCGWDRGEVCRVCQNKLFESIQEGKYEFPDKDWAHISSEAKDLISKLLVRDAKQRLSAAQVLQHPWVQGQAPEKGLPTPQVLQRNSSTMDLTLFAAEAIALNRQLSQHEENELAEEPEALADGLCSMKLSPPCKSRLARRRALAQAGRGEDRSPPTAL
kinases (KINOMEscan panel) (Homo sapiens, UniProt P06239), sequence (P06239 whole entry): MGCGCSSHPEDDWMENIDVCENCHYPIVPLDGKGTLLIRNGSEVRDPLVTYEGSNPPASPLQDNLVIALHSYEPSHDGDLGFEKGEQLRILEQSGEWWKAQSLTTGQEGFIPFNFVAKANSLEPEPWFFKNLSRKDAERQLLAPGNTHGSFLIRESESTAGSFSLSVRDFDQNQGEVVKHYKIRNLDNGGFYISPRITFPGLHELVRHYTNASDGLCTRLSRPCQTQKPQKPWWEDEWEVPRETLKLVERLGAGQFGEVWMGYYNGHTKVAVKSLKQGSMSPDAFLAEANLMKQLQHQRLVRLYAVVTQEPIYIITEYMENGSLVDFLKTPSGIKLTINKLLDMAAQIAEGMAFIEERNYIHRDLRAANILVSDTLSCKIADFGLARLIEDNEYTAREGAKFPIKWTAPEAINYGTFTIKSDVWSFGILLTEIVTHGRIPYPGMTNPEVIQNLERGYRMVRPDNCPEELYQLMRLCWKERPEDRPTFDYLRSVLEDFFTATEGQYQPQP

In the case of `Cc1cccc(-c2nc(Nc3ccncc3)c3ccccc3n2)n1` [NK215], the “KINOMEscan MERTK” value [1] is listed as 9, the “KINOMEscan LCK” value [2] is listed as 9 and the “KINOMEscan MKNK1” value [3] is listed as 0. The “KINOMEscan NEK2” value [4] was 0, the “KINOMEscan SRPK1” value [5] was 0 and the “KINOMEscan CAMK2D” value [6] was 7. The “KINOMEscan LTK” value [7] was 21 and the “KINOMEscan RIPK1” value [8] was 4.
